pIC50: −log10 of the molar value.
How the values were obtained:
in vitro [1] = details: human, microsomes
in vitro [2] = details: CD1, mouse, microsomes
CYP3A4 = CYP3A4 (Homo sapiens, UniProt P08684); assay: in vitro; details: recombinant enzyme
in vivo [3] = details: BALB/c, mouse, iv, 0.5 mg/kg
in vivo [4] = details: BALB/c, mouse, po, 5 mg/kg
physchem = details: buffer, pH 7.4
in vivo [5] = details: BALB/c, mouse, po, 5 mg/kg; remark: listed apart in the source
in vivo [6] = details: BALB/c, mouse, iv, 0.5 mg/kg; remark: listed apart in the source
in vivo [7] = details: BALB/c, mouse, po, 5 mg/kg; remark: listed apart in the source
COLO 205 = assay: cells; type: functional, cell-based; details: Homo sapiens, COLO 205, 96 h

CYP3A4, sequence (P08684 whole entry): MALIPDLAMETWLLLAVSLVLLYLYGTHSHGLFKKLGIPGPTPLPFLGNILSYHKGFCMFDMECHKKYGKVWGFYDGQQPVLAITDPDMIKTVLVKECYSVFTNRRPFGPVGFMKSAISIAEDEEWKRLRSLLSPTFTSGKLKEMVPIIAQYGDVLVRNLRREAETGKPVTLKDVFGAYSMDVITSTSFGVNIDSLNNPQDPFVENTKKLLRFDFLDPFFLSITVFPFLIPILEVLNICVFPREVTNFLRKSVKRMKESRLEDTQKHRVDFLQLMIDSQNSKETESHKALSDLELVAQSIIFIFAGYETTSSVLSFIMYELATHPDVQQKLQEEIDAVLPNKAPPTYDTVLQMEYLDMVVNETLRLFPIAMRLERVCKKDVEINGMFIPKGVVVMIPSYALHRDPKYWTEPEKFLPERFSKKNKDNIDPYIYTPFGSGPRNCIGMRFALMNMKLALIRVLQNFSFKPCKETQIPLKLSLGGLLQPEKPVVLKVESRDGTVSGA

Row | Structure (SMILES) | half-life at 40 min, 1 µM (in vitro [1]) [min] | half-life at 40 min, 1 µM (in vitro [2]) [min] | half-life at 40 min, 1 µM (CYP3A4) [min] | Vd at 24 h (in vivo [3]) [L/kg] | AUC at 24 h (in vivo [4]) [ng·h/mL] | chromatographic logD (physchem) | bioavailability at 24 h (in vivo [5]) [%] | clearance at 24 h (in vivo [6]) [mL/min/kg] | half-life at 24 h (in vivo [7]) [min] | pIC50 (COLO 205)
1 | C[C@H](C(=O)N[C@H](CO)c1cc(F)cc(OCCN(C)C)c1)N1Cc2ccc(-c3nc(NC4CCOCC4)ncc3Cl)cc2C1=O | 60 |  | 10 |  |  |  |  |  |  | 
2 | O=C(CN1Cc2ccc(-c3nc(NC4CCOCC4)ncc3Cl)cc2C1=O)N1CCc2ccccc2CC1 | 17 | 28 | 28 | 0.45 | 440 | 4.7 | 10 | 19 | 84 | 
3 | COc1cc(F)cc([C@@H](CO)NC(=O)[C@@H](C)N2Cc3ccc(-c4ccnc(NC5CCOCC5)n4)cc3C2=O)c1 | 62 |  | 49 | 1 | 320 | 3.2 | 7 | 17 | 72 | 7.82
4 | COc1cc(F)cc([C@@H](CO)NC(=O)[C@@H](C)N2Cc3ccc(-c4nc(Nc5cnn(C)n5)ncc4Cl)cc3C2=O)c1 | 26 | 26 | 19 | 0.46 | 6400 | 3.7 | 64 | 8.3 | 90 | 7.82
5 | C[C@H](C(=O)N[C@H](CO)c1cccc(N2CCN(C)CC2)n1)N1Cc2ccc(-c3nc(NC4CCOCC4)ncc3Cl)cc2C1=O | 36 | 120 | 17 | 0.76 | 1300 | 3.3 | 15 | 8.7 | 60 | 
6 | C[C@H](C(=O)N[C@H](CO)c1cc(F)cc(N2CCN(C)CC2)c1)N1Cc2ccc(-c3nc(NC4CCOCC4)ncc3Cl)cc2C1=O | 51 |  |  | 3.8 | 18 | 3.6 |  | 124 |  | 
7 | Cc1cccc([C@@H](CO)NC(=O)[C@@H](C)N2Cc3ccc(-c4nc(NC5CCOCC5)ncc4Cl)cc3C2=O)c1 | 12 | 31 |  |  |  | 3.9 |  |  |  | 

Continued, values first:

Row | half-life at 40 min, 1 µM (in vitro [1]) [min] | half-life at 40 min, 1 µM (in vitro [2]) [min] | half-life at 40 min, 1 µM (CYP3A4) [min] | Vd at 24 h (in vivo [3]) [L/kg] | AUC at 24 h (in vivo [4]) [ng·h/mL] | chromatographic logD (physchem) | bioavailability at 24 h (in vivo [5]) [%] | clearance at 24 h (in vivo [6]) [mL/min/kg] | half-life at 24 h (in vivo [7]) [min] | pIC50 (COLO 205) | Structure (SMILES)
8 | 23 | 49 | < 5 |  |  |  |  |  |  |  | C[C@H](C(=O)N[C@H](CO)c1cc(F)cc(F)c1)N1Cc2ccc(-c3nc(NC4CCOCC4)ncc3Cl)cc2C1=O
9 | < 5 | < 5 |  |  |  |  |  |  |  |  | O=C(CN1Cc2ccc(-c3nc(NC4CCOCC4)ncc3Cl)cc2C1=O)N1CCCc2ccccc2C1
10 | 27 | 100 |  |  |  |  |  |  |  |  | COc1cccc([C@@H](CO)NC(=O)[C@@H](C)N2Cc3ccc(-c4nc(NC5CCOCC5)ncc4Cl)cc3C2=O)c1
11 | 10 | 20 |  | 0.91 | 960 | 3.6 | 40 | 35 | 53.4 |  | O=C(CN1Cc2ccc(-c3nc(NC4CCOCC4)ncc3Cl)cc2C1=O)N[C@@]1(CO)CCc2ccccc21

Source: ChEMBL document CHEMBL4828736, “Discovery of ASTX029, A Clinical Candidate Which Modulates the Phosphorylation and Catalytic Activity of ERK1/2” (J Med Chem, 2021)
